Data as given in ChEMBL document CHEMBL1201862, “PubChem BioAssay data set” (2004).
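Assay format: 96-well plates, 48-hour exposure. GI50 = concentration required for 50% inhibition of growth.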 Active and inactive are the calls of the source. No stated cut-off is given here; in the data, active = GI50 up to about 1.1 µM and inactive = higher.

Assays:
Assay in all cases: NCI tumour cell line growth inhibition, 48 h
NCI-H522 = system: NCI-H522
SK-MEL-5 = system: SK-MEL-5
RPMI-8226 = system: RPMI-8226
UACC-62 = system: UACC-62
SK-OV-3 = system: SK-OV-3
MOLT-4 = system: MOLT-4
HL-60 = system: HL-60
SK-MEL-28 = system: SK-MEL-28
COLO 205 = system: COLO 205
CCRF-CEM = system: CCRF-CEM
M19-MEL = system: M19-MEL
SF-295 = system: SF-295
HT-29 = system: HT-29
NCI-H460 = system: NCI-H460
SNB-78 = system: SNB-78
786-0 = system: 786-0
T47D = system: T47D
MDA-MB-435 = system: MDA-MB-435
MDA-N = system: MDA-N
PC-3 = system: PC-3

Compound: O=C(NCCCl)O/N=C/c1cccnc1
- GI50 (NCI-H522): > 100 µM (inactive)
- GI50 (SK-MEL-5): > 100 µM (inactive)
- GI50 (RPMI-8226): > 100 µM (inactive)
- GI50 (UACC-62): > 100 µM (inactive)
- GI50 (SK-OV-3): > 100 µM (inactive)
- GI50 (MOLT-4): > 100 µM (inactive)
- GI50 (HL-60): > 100 µM (inactive)
- GI50 (SK-MEL-28): > 100 µM (inactive)
- GI50 (COLO 205): > 100 µM (inactive)
- GI50 (CCRF-CEM): > 100 µM (inactive)
- GI50 (M19-MEL): > 100 µM (inactive)
- GI50 (SF-295): > 100 µM (inactive)
- GI50 (HT-29): > 100 µM (inactive)
- GI50 (NCI-H460): > 100 µM (inactive)

Compound: OCCN1CCN(CCO)Cc2ccccc2OCCOc2ccccc2C1
- GI50 (NCI-H522): > 100 µM (inactive)
- GI50 (SK-MEL-5): > 100 µM (inactive)
- GI50 (RPMI-8226): > 100 µM (inactive)
- GI50 (SK-OV-3): > 100 µM (inactive)
- GI50 (MOLT-4): > 100 µM (inactive)
- GI50 (SNB-78): > 100 µM (inactive)
- GI50 (SK-MEL-28): > 100 µM (inactive)
- GI50 (COLO 205): > 100 µM (inactive)
- GI50 (CCRF-CEM): > 100 µM (inactive)
- GI50 (M19-MEL): > 100 µM (inactive)
- GI50 (HT-29): 96.8 µM (inactive)
- GI50 (786-0): > 100 µM (inactive)
- GI50 (NCI-H460): > 100 µM (inactive)

Compound: COc1ccc(N(CC(=O)O)S(=O)(=O)c2ccccc2)cc1
- GI50 (NCI-H522): > 100 µM (inactive)
- GI50 (SK-MEL-5): > 100 µM (inactive)
- GI50 (RPMI-8226): > 100 µM (inactive)
- GI50 (UACC-62): > 100 µM (inactive)
- GI50 (SK-OV-3): > 100 µM (inactive)
- GI50 (MOLT-4): > 100 µM (inactive)
- GI50 (HL-60): > 100 µM (inactive)
- GI50 (COLO 205): > 100 µM (inactive)
- GI50 (CCRF-CEM): > 100 µM (inactive)
- GI50 (M19-MEL): > 100 µM (inactive)
- GI50 (SF-295): > 100 µM (inactive)
- GI50 (HT-29): > 100 µM (inactive)
- GI50 (786-0): > 100 µM (inactive)
- GI50 (NCI-H460): > 100 µM (inactive)

Compound: C/C=C(\C)C(=O)OC1C2C(C)=CC(=O)C(O)C2(C)C2C3(O)OCC24C1OC(=O)C(OC(C)=O)C4C(C)C3O (configuration not stated)
- GI50 (RPMI-8226): 0.0375 µM (active)
- GI50 (UACC-62): 0.0375 µM (active)
- GI50 (SK-OV-3): 0.144 µM (active)
- GI50 (MOLT-4): 0.0375 µM (active)
- GI50 (SNB-78): 0.0483 µM (active)
- GI50 (HL-60): 0.0375 µM (active)
- GI50 (SK-MEL-28): 0.0375 µM (active)
- GI50 (COLO 205): 0.0719 µM (active)
- GI50 (CCRF-CEM): 0.0375 µM (active)
- GI50 (M19-MEL): 0.0375 µM (active)
- GI50 (SF-295): 0.0402 µM (active)
- GI50 (HT-29): 0.0385 µM (active)
- GI50 (NCI-H460): 0.0375 µM (active)

Compound: Cc1cc(C)c(/C=C2\C(=O)Nc3ccccc32)[nH]1 [SEMAXANIB]
- GI50 (T47D): > 100 µM (inactive)
- GI50 (NCI-H522): > 49.9 µM (inactive)
- GI50 (MDA-MB-435): > 96.4 µM (inactive)
- GI50 (SK-MEL-5): > 90.8 µM (inactive)
- GI50 (RPMI-8226): > 100 µM (inactive)
- GI50 (MDA-N): > 95.9 µM (inactive)
- GI50 (UACC-62): > 100 µM (inactive)
- GI50 (SK-OV-3): > 66.7 µM (inactive)
- GI50 (MOLT-4): > 78.2 µM (inactive)
- GI50 (HL-60): 7.28 µM (inactive)
- GI50 (SK-MEL-28): > 100 µM (inactive)
- GI50 (COLO 205): > 100 µM (inactive)
- GI50 (PC-3): > 100 µM (inactive)
- GI50 (CCRF-CEM): > 100 µM (inactive)
- GI50 (SF-295): > 100 µM (inactive)
- GI50 (HT-29): 35.6 µM (inactive)
- GI50 (786-0): > 100 µM (inactive)
- GI50 (NCI-H460): > 57.8 µM (inactive)
